For 22 compounds, inhibition and melting point results are on record in patent US20070249620A1, “Urea Derivative” (priority 2004, published 2007).

Where only a bound is given, the exact number is not on record here.

Data set [1] deals with T1, mouse DGAT1 (Mus musculus, UniProt Q9Z2A7).
T1 construct: made in house; host or cells: insect cells (High Five, Sf9, Sf21, etc.), baculovirus expression system (Invitrogen)
T1 sequence (Q9Z2A7 1-498): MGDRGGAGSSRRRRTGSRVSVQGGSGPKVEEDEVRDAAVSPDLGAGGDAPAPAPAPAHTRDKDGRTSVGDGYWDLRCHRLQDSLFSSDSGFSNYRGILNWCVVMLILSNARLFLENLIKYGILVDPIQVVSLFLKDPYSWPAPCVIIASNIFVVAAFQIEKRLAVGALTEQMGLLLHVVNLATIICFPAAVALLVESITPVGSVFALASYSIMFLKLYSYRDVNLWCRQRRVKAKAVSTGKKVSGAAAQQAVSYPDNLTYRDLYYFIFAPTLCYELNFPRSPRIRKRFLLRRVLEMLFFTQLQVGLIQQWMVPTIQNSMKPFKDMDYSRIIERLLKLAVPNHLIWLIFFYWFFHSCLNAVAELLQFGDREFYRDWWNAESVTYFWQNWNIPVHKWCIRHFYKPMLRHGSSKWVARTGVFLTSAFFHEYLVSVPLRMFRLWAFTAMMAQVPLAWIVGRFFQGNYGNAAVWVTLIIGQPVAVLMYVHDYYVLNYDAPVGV
The data set can be described thus: DGAT1 inhibitory effect test (microsome fraction, [14C]-oleoyl-CoA, triglyceride radioactivity by TLC). The settings on record: 0.5 h; concentration of the test compound 0.1 μg/ml; mouse DGAT1 microsomes, 23° C., 30 minutes; read-out: Inhibitory ratio. The format is biochemical. The essentials: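 Inhibition was scored from radiolabelled triglyceride separated by TLC, relative to vehicle and net of a 0-min background. The reaction ran for 30 min at room temperature (23 °C) in Tris-HCl pH 8.0 with MgCl2, BSA and Triton X-100. Substrates were 30 μM [14C]-oleoyl-CoA and 0.5 mM dioleoylglycerol, with mouse DGAT1 microsomes from baculovirus-infected insect cells as enzyme.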

`O=C(Nc1ccc(N2CCN(C(=O)Nc3ccc(OCCO)cc3C(F)(F)F)CC2)cc1)Nc1ccccc1OC(F)(F)F` [Example 240, 4-{4-[3-(2-trifluoromethoxy-phenyl)-ureido]-phenyl}-piperazine-1-carboxylic acid [4-(2-hydroxy-ethoxy)-2-trifluoromethyl-phenyl]-amide] yielded a melting point of 112 to 114 °C. The inhibition at 0.1 µg/mL in data set [1] is at least 50%.
Consider `CSc1ccccc1NC(=O)Nc1ccc(N2CCN(C(=O)Nc3ccc(OCCO)cc3C(F)(F)F)CC2)cc1` [Example 241, 4-{4-[3-(2-methylsulfanyl-phenyl)-ureido]-phenyl}-piperazine-1-carboxylic acid [4-(2-hydroxy-ethoxy)-2-trifluoromethyl-phenyl]-amide], for which the melting point was in the range of 115 to 116 °C. Besides, in data set [1], the inhibition at 0.1 µg/mL was at least 50%.
In the case of `COc1ccc(C)cc1NC(=O)Nc1ccc(N2CCN(C(=O)Nc3ccc(OCCO)cc3C(F)(F)F)CC2)c(C#N)c1` [Example 242, 4-{2-cyano-4-[3-(2-methoxy-5-methyl-phenyl)-ureido]-phenyl}-piperazine-1-carboxylic acid [4-(2-hydroxy-ethoxy)-2-trifluoromethyl-phenyl]-amide], the melting point fell in the range of 135 to 137 °C. Further, the inhibition at 0.1 µg/mL in data set [1] was at least 50%.
`O=C(Nc1ccc(N2CCN(C(=O)Nc3ccc(OCCO)cc3C(F)(F)F)CC2)cc1)Nc1ccc2c(c1)CCO2` [Example 243, 4-{4-[3-(2,3-dihydro-benzofuran-5-yl)-ureido]-phenyl}-piperazine-1-carboxylic acid [4-(2-hydroxy-ethoxy)-2-trifluoromethyl-phenyl]-amide] registered a melting point of 212 to 214 °C. Also, the inhibition at 0.1 µg/mL in data set [1] is at least 50%.
For `O=C(Nc1ccc(N2CCN(C(=O)Nc3ccc(OCCO)cc3C(F)(F)F)CC2)cc1)Nc1cccc2c1OCCO2` [Example 244, 4-{4-[3-(2,3-dihydro-1,4-benzodioxin-5-yl)-ureido]-phenyl}-piperazine-1-carboxylic acid [4-(2-hydroxy-ethoxy)-2-trifluoromethyl-phenyl]-amide] the same measures were 127 to 129 °C and at least 50%.
Turning to `O=C(Nc1ccc(N2CCN(C(=O)Nc3ccc(OCCO)cc3C(F)(F)F)CC2)cc1)Nc1ccccc1OC(F)F` [Example 245, 4-{4-[3-(2-difluoromethoxy-phenyl)-ureido]-phenyl}-piperazine-1-carboxylic acid [4-(2-hydroxy-ethoxy)-2-trifluoromethyl-phenyl]-amide], the melting point fell in the range of 118 to 120 °C. Moreover, the inhibition at 0.1 µg/mL in data set [1] was at least 50%.
On to `CCc1csc(NC(=O)Nc2ccc(N3CCN(C(=O)Nc4ccc(OCCO)cc4C(F)(F)F)CC3)cc2)n1` [Example 246, 4-{4-[3-(4-ethyl-thiazol-2-yl)-ureido]-phenyl}-piperazine-1-carboxylic acid [4-(2-hydroxy-ethoxy)-2-trifluoromethyl-phenyl]-amide], for which the melting point fell in the range of 124 to 125 °C. Also, the inhibition at 0.1 µg/mL in data set [1] was at least 50%.
Consider `COc1cccc(NC(=O)Nc2ccc(N3CCN(C(=O)Nc4ccc(OCCO)cc4C(F)(F)F)CC3)cc2)c1OC` [Example 247, 4-{4-[3-(2,3-dimethoxy-phenyl)-ureido]-phenyl}-piperazine-1-carboxylic acid [4-(2-hydroxy-ethoxy)-2-trifluoromethyl-phenyl]-amide], for which the melting point lay within 135 to 138 °C. The inhibition at 0.1 µg/mL in data set [1] is at least 50%.
In the case of `COc1ccc(C)cc1NC(=O)Nc1ccc(N2CCN(C(=O)Nc3ccc(OCCO)cc3Cl)CC2)cc1` [Example 248, 4-{4-[3-(2-methoxy-5-methyl-phenyl)-ureido]-phenyl}-piperazine-1-carboxylic acid [2-chloro-4-(2-hydroxy-ethoxy)-phenyl]-amide], the melting point was 152 to 154 °C. In addition, in data set [1], the inhibition at 0.1 µg/mL was at least 50%.
`COc1cccc(NC(=O)Nc2ccc(N3CCN(C(=O)Nc4ccc(OCCO)cc4Cl)CC3)cc2)c1` [Example 249, 4-{4-[3-(3-methoxy-phenyl)-ureido]-phenyl}-piperazine-1-carboxylic acid [2-chloro-4-(2-hydroxy-ethoxy)-phenyl]-amide]: the melting point fell in the range of 198 to 201 °C. Also, the inhibition at 0.1 µg/mL in data set [1] is at least 50%.
Take `COc1cc(NC(=O)Nc2ccc(N3CCN(C(=O)Nc4ccc(OCCO)cc4Cl)CC3)cc2)cc(OC)c1` [Example 250, 4-{4-[3-(3,5-dimethoxy-phenyl)-ureido]-phenyl}-piperazine-1-carboxylic acid [2-chloro-4-(2-hydroxy-ethoxy)-phenyl]-amide]: the melting point fell in the range of 114 to 116 °C. Besides, the inhibition at 0.1 µg/mL in data set [1] was at least 50%.
The like results for `COc1ccccc1NC(=O)Nc1ccc(N2CCN(C(=O)Nc3ccc(OCCO)cc3Cl)CC2)cc1` [Example 251, 4-{4-[3-(2-methoxy-phenyl)-ureido]-phenyl}-piperazine-1-carboxylic acid [2-chloro-4-(2-hydroxy-ethoxy)-phenyl]-amide] were, in that order, 134 to 136 °C and at least 50%.
The like results for `COc1ccc(C)cc1NC(=O)Nc1ccc(N2CCN(C(=O)Nc3ccc(OCCO)cc3Cl)C(C)C2)cc1` (centres unmarked) [Example 252, 4-{4-[3-(2-methoxy-5-methyl-phenyl)-ureido]-phenyl}-2-methyl-piperazine-1-carboxylic acid [2-chloro-4-(2-hydroxy-ethoxy)-phenyl]-amide] were, in that order, 129 to 131 °C and at least 50%.
The compound `COc1ccc(C)cc1NC(=O)Nc1ccc(N2CCN(C(=O)Nc3ccc(OCCO)cc3Cl)CC2)c(F)c1` [Example 253, 4-{2-fluoro-4-[3-(2-methoxy-5-methyl-phenyl)-ureido]-phenyl}-piperazine-1-carboxylic acid [2-chloro-4-(2-hydroxy-ethoxy)-phenyl]-amide] registered a melting point of 118 to 120 °C. Moreover, the inhibition at 0.1 µg/mL in data set [1] was at least 50%.
Compound `O=C(Nc1ccc(N2CCN(C(=O)Nc3ccc(OCCO)cc3Cl)CC2)cc1)Nc1ccccc1F` [Example 255, 4-{4-[3-(2-fluoro-phenyl)-ureido]-phenyl}-piperazine-1-carboxylic acid [2-chloro-4-(2-hydroxy-ethoxy)-phenyl]-amide] registered a melting point of 213 to 217 °C. The inhibition at 0.1 µg/mL in data set [1] is at least 50%.
For `COc1ccc(C)cc1NC(=O)Nc1ccc(C2=CCN(C(=O)Nc3ccc(OCCO)cc3Cl)CC2)cc1` [Example 256, 4-{4-[3-(2-methoxy-5-methyl-phenyl)-ureido]-phenyl}-3,6-dihydro-2H-pyridine-1-carboxylic acid [2-chloro-4-(2-hydroxy-ethoxy)-phenyl]-amide], the melting point was in the range of 117 to 120 °C. Also, in data set [1], the inhibition at 0.1 µg/mL is at least 50%.
`COc1ccc(C)cc1NC(=O)Nc1ccc(C2CCN(C(=O)Nc3ccc(OCCO)cc3Cl)CC2)cc1` [Example 257, 4-{4-[3-(2-methoxy-5-methyl-phenyl)-ureido]-phenyl}-piperidine-1-carboxylic acid [2-chloro-4-(2-hydroxy-ethoxy)-phenyl]-amide] had a melting point of 134 to 137 °C. In data set [1], the inhibition at 0.1 µg/mL is at least 50%.
Compound `COc1ccccc1NC(=O)Nc1ccc(C2=CCN(C(=O)Nc3ccc(OCCO)cc3Cl)CC2)cc1` [Example 258, 4-{4-[3-(2-methoxy-phenyl)-ureido]-phenyl}-3,6-dihydro-2H-pyridine-1-carboxylic acid [2-chloro-4-(2-hydroxy-ethoxy)-phenyl]-amide] came in with a melting point of 120 to 125 °C. Besides, in data set [1], the inhibition at 0.1 µg/mL was at least 50%.
The like results for `COc1cc(NC(=O)Nc2ccc(C3=CCN(C(=O)Nc4ccc(OCCO)cc4Cl)CC3)cc2)cc(OC)c1` [Example 259, 4-{4-[3-(3,5-dimethoxy-phenyl)-ureido]-phenyl}-3,6-dihydro-2H-pyridine-1-carboxylic acid [2-chloro-4-(2-hydroxy-ethoxy)-phenyl]-amide] were, in that order, 135 to 139 °C and at least 50%.
The compound `O=C(Nc1ccc(C2=CCN(C(=O)Nc3ccc(OCCO)cc3Cl)CC2)cc1)Nc1ccccc1F` [Example 260, 4-{4-[3-(2-fluoro-phenyl)-ureido]-phenyl}-3,6-dihydro-2H-pyridine-1-carboxylic acid [2-chloro-4-(2-hydroxy-ethoxy)-phenyl]-amide] yielded a melting point of 173 to 178 °C. Also, in data set [1], the inhibition at 0.1 µg/mL is at least 50%.
`COc1ccccc1NC(=O)Nc1ccc(C2CCN(C(=O)Nc3ccc(OCCO)cc3Cl)CC2)cc1` [Example 261, 4-{4-[3-(2-methoxy-phenyl)-ureido]-phenyl}-piperidine-1-carboxylic acid [2-chloro-4-(2-hydroxy-ethoxy)-phenyl]-amide] displayed a melting point of 166 to 168 °C. In addition, in data set [1], the inhibition at 0.1 µg/mL was at least 50%.
The like results for `COc1cc(NC(=O)Nc2ccc(C3CCN(C(=O)Nc4ccc(OCCO)cc4Cl)CC3)cc2)cc(OC)c1` [Example 262, 4-{4-[3-(3,5-dimethoxy-phenyl)-ureido]-phenyl}-piperidine-1-carboxylic acid [2-chloro-4-(2-hydroxy-ethoxy)-phenyl]-amide] were, in that order, 101 to 105 °C and at least 50%.

For orientation: melting point means the temperature of the solid-liquid transition.
